Patent US12712060B2, “Multi-modal crypto/bio-human-machine interface” (The Regents of the University of California, priority 2022, dated 2026)
One block for each compound: values may come before it.

Experiments:
[1] = touch-based APAP TH-sensor (DPV) measurement on index fingertip after APAP medication intake; format: in vivo, human; settings: 60 min after intake of 650 mg APAP, APAP-free threshold 3.7 nA
Protocol: Adopted was a similar study framework to evaluate the in-situ detection capability of APAP TH-sensor. For this context, the measured signal is defined as the voltammetric current peak height ([…]), and the threshold for determining the APAP-free state was measured as 3.7 nA (three trials). FIGS. 3D and 3E show the corresponding voltammograms measured by the APAP TH-sensor, 10 min before and 60 min after the intake of an APAP-based medication (containing 650 mg APAP). The comparison of the two voltammograms and the corresponding extracted current peaks (IP, pre-intake ~0 nA vs. IP, post-intake ~15 nA) validates that the developed TH-sensor is capable of detecting the presence of circulating APAP molecules via the devised touch-based modality.

[2] = cited from earlier work
[3] = patient, 900 mg lithium carbonate; ~0-1 h pre-intake vs ~1-2 h post-intake
Protocol: Further validated was the performance of the developed TOH-ISE in an in-situ lithium adherence monitoring study. To this end, a subject prescribed lithium-based medication was recruited. […] In a control experiment, touch-based sensing and salivary lithium analysis were also performed on three healthy subjects, where circulating lithium is expected to be negligible.
In-situ TOH-ISE characterization. […] For each touch-based entry, the subjects were instructed to wash their index or middle fingertips with DI water before testing. The acquired potentiometric readouts were processed using the same method as the ex-situ experiments to extract the sensing signal. For saliva collection, the subjects were instructed to rinse their mouth with cold water before collection. The samples were collected via direct salivation using a Saliva Collection Aid (Salimetrics, CA, USA). The salivary lithium was quantified using a colorimetric lithium assay kit (Abcam ab235613, MA, USA) and Nanodrop One (Thermo Fisher, MA, USA).

[4] = human, in vivo, 60 min
Source text: Embodiments specifically employ the ethanol TH-sensor to assess whether the sensor is capable of differentiating between two states: no alcohol-intake vs. recent intake of an alcoholic beverage. For this context, defined were the measured signal S as the slope of the sensor's amperometric response, and the threshold as Sfree, avg+3×Sfree, SD, where Sfree, avg and Sfree, SD are the average and standard deviation of the signals obtained from the alcohol-free subject (three trials). […] Then performed were touch-based TH-sensor measurements before (t=−20 min) and after (t=+60 min) the intake of an alcoholic beverage (~100 mL, 12.5% alcohol).
Two human subjects participated in the characterization of each type of TH-sensor. For each trial, the subjects were instructed to wash their index fingertips with deionized (DI) water before testing and to rinse their mouth with cold water immediately after the beverage/medication intake (to avoid contamination from residue). Touch-based measurements were performed using corresponding TH-sensors before and at intermittent time points after the beverage/medication intake. The water loss from the fingertip was monitored by an evaporimeter (VapoMeter, Delfin Technologies). The fingertip temperature was monitored by a thermocouple (HT-9815, RISEPRO). […] BAC was estimated using an alcohol breathalyzer (S80, BACtrack Inc.). […]

APAP TH-sensor voltammetric current peak height IP, post-intake [1]: ~ 15 nA
SMILES: CC(=O)Nc1ccc(O)cc1 [APAP, acetaminophen]

TOH-ISE touch-based sensing signal, post versus pre drug intake [3]: larger signal
SMILES: O=C([O-])[O-].[Li+].[Li+] [lithium, lithium carbonate]
clinically relevant range in non-invasively retrievable biofluid (e.g., saliva) ([2]; saliva, ~twice the corresponding serum concentrations): 0.5 to 3 mM
therapeutic window ([2]; severe adverse effects if overdosed): 0.6 to 1.2 mM

ethanol TH-sensor signal S (slope of amperometric response) [4]: 21.5 nA/min
SMILES: CCO [ethanol]
